Source: patent US20160052985A1, “THYMIC STROMAL LYMPHOPOIETIN FRAGMENTS AND USES THEREOF” (IEO - ISTITUTO EUROPEO DI ONCOLOGIA SRL, priority 2013, published 2016)

Assays:
HaCaT cells = assay: qPCR of TSLP isoform mRNA in challenged HaCaT keratinocytes; format: cell-based, human; settings: 24 hours challenge
Protocol: RNA was extracted using the RNeasy Micro Kit (Qiagen). RNA was reverse transcribed with oligo(dT) and ImProm-II™ Reverse Transcriptase (Promega). Quantitative real-time PCRs were performed with Fast SYBR Green PCR kit on the Applied Biosystems 7900HT Fast RT-PCR System (Applied Biosystems). Results were quantified using the 2-DCt method (Livak and Schmittgen, Methods, 2001). Gene expression was normalized to the expression of the housekeeping gene, gapdh.
Caco2 cells were cultured in DMEM supplemented with 10% FBS, 1% Glutamine, 1% non-essential aminoacids, 1% Penicillin-Streptomycin. HaCaT cells were cultured in DMEM supplemented with 10% FBS, 1% Glutamine, 1% Penicillin-Streptomycin. For growth on transwell inserts (Corning), 2×10^5 caco2 cells were seeded on 6 mm^2 transwells and grown for 10-12 days, until transepithelial resistance was roughly […]. Cells were infected with bacteria in the absence of antibiotics at a multiplicity of infection of 1:100 for one hour. Then medium was replaced with complete medium containing 100 μg/mL Gentamicin and the cells were cultured for a further 23 hours. HaCaT cells were challenged with calcitriol, an active form of vitamin D, (10 μM, Enzo Life Sciences), or poly(I:C) (1 μg/mL) for 24 hours. At the end of the challenge cells were lysed in Trizol (Ambion, Life Technologies) reagent for RNA extraction or RIPA buffer for protein extraction.

[1] = test system: peripheral blood mononuclear cells (PBMC); assay: bidirectional allogenic mixed lymphocyte reaction (MLR), IFNgamma by ELISA; format: cell-based, human; settings: PBMC from two donors 1:1, increasing doses, 5 days
Source text: Buffy coats were obtained from healthy donors (Abbiategrasso hospital, Italy) with informed consent for research use. Peripheral blood mononuclear cells (PBMC) were separated with Ficoll (GE Healthcare) gradient centrifugation and then resuspended and cultured in RPMI 1640 medium (Lonza) containing 10% fetal bovine serum (Gibco), 1% Glutamine 1% pyruvate, 1% non essential AA and 1% Penicillin-Streptomycin. PBMC from two different donors were co-cultured (1:1) in presence of long and short TSLP at different concentrations. After 5 days supernatants were collected and IFNgamma levels were measured by ELISA (R&D systems).

C57Bl/6J mice = assay: LPS-induced endotoxic shock, serum cytokines; format: in vivo, mouse; settings: for level of inflammatory cytokines in the serum: endotoxin shock model, short TSLP fragments
Protocol: (§1) Mice were treated intraperitoneally (i.p.) with short TSLP at 50, 100, 200 μg per mouse in 200 μl of injectable water twice, 12 hours and 2 hours, before LPS administration (n=8 per group). Control mice received water. LPS (E. coli serotype 026:B6; Sigma-Aldrich) was injected intraperitoneally (i.p.) at 200 μg per mouse in 200 μl of injectable water. After 6 hours mice were euthanized by exsanguination under anesthesia and blood was collected. IFNgamma, IL6 and IL12-p40 levels were detected in the serum by ELISA (R&D Systems), according to manufacturer's instructions.

[2] = test system: myeloid dendritic cells (mDC); assay: flow cytometry of STAT5 pY694 in myeloid dendritic cells; format: cell-based, human; settings: 15 minutes, 3.5 nM, in the absence and in the presence of the short isoform
Protocol: Control conditions included cells either left unstimulated (negative control) or incubated with sodium pervanadate ([…], positive control, data not shown). At the end of incubation cells were rapidly spun, fixed with BD Cytofix™ Buffer for 15 minutes at 37° C. and permeabilized with BD™ Phosflow Perm Buffer III on ice for 30 minutes, followed by intracellular staining using mouse anti-pSTAT5 (pY694) antibody (45/Stat5, BD Biosciences) or isotype antibody (MOPC-21). Samples were acquired on a BD Cantoll flow cytometer (BD Biosciences) and analyzed with FlowJo software (v8.7, Tree Star).

[3] = test system: myeloid dendritic cells (mDC); assay: CCL17 and CCL22 ELISA in supernatants of myeloid DCs; format: cell-based, human; settings: 24 hours, in the absence and in the presence of the short isoform
Protocol: (§2) Myeloid BDCA1+ cells were isolated from PBMC using CD1c (BDCA-1)+ Dendritic Cell Isolation Kit (Miltenyi Biotec) according to the manufacturer's instructions. […] Cells were then washed and cocultured with naïve CD4 T cells from a different donor (ratio 1 DC: 5 T). CD4 cells were isolated using naive CD4+ T Cell Isolation Kit II (Miltenyi Biotec) according to the manufacturer's instructions. After 6 days supernatants were collected and cells were restimulated for 4 hours with PMA (phorbol 12-myristate 13-acetate, 50 ng/ml) and ionomycin (1 ug/ml); for the last 3 hours brefeldin A (10 ug/ml) was added to the culture. Intracellular staining for TNF and IFNgamma positive cells was performed afterwards. CCL17, CCL22 and IFNgamma levels were assessed in the supernatant of DC or of the DC-T culture by ELISA (R&D Systems).

[4] = test system: intestinal mucosa from ulcerative colitis patients; assay: ex-vivo organ culture of intestinal mucosa from ulcerative colitis patients; parameters: species or system human; settings: 100 and 1000 ng/ml
Protocol: The activity of short TSLP on IBD tissues was assessed directly on human intestinal mucosa. Briefly, IBD mucosa was separated from the submucosa and mounted as described (Tsilingiri K., et al. J Vis Exp. 2013).

[5] = test system: monocyte-derived dendritic cells; assay: monocyte-derived DCs conditioned 24 h, then Salmonella challenge; cytokine secretion by cytometric bead assay; format: cell-based, human; settings: 24 h conditioning, then LPS or bacterial stimulation
Protocol: (§3) Peripheral CD14^+ monocytes were isolated from PBMC using human CD14^+ microbeads (Miltenyi Biotec) according to the manufacturer's instructions. Cells were then cultivated in complete RPMI 1640 medium in the presence of IL4 (2.5 ng/ml) and GM-CSF (5 ng/ml) (BD Biosciences) for 6 days to obtain monocyte-derived dendritic cells. The percentage and the phenotype of cell subsets were evaluated before and after differentiation by flow cytometry. Dendritic cells were seeded in complete RPMI 1640 medium at 1×10^6/ml in 48-well plates in the presence of short TSLP at different concentrations or culture medium alone. After 24 hours of culture dendritic cells were gently washed and challenged with Salmonella typhimurium FB62 (MOI 1:1) for 1 hour. Bacteria were then washed out and the medium replaced with medium containing 100 μg/ml gentamycin. Cytokine secretion was assessed after 24 hours by cytometric bead assay Flex sets (BD Biosciences). CBA were acquired on a BD Accuri C6 (BD Biosciences) and analyzed with FCAP software (BD Biosciences).

[6] = test system: monocyte-derived dendritic cells; assay: FACS analysis of activation status of monocyte derived DCs; format: cell-based, human; settings: 24 h conditioning; immature and Salmonella treated (mature) DCs
Protocol: as §3
Cells were stained with monoclonal anti-human fluorescently conjugated antibodies: CD14 (M5E2), CD19 (HIB19), CD11c (B-ly6), CD45RA (HI100), CD3 (UCHT1), TNF (Mab11), IFNg (4S.B3), TNF (Mab11) from BD Biosciences; CD4 (RPA-T4) from Ebioscience; CD1a (HI149) and TSLPR (1B4) from Biolegend.

[7] = test system: naive CD4 T cells cocultured with mDC; assay: conditioned myeloid DCs cocultured with naive CD4 T cells; format: cell-based, human
Protocol: as §2

tslpr-/- mice = assay: LPS-induced endotoxic shock in TSLPR knock-out mice; format: in vivo, mouse; settings: 200 μg i.p.
Protocol: Female C57Bl/6J mice (8 to 10 weeks of age) were obtained from Charles River Laboratories (Milan, Italy). TSLPR-deficient mice on the C57Bl/6J background were provided by Dr W. J. Leonard (Laboratory of Molecular Immunology, NHLBI, USA). Mice were bred and maintained at IFOM-IEO campus animal facility under specific pathogen-free conditions. All experiments were performed in accordance with the guidelines established in the Principle of Laboratory Animal Care (directive 86/609/EEC).
as §1

[8] = test system: mice with DSS-induced colitis; assay: DSS-induced colitis; format: in vivo, mouse; settings: 3% DSS, 200 μg i.p. every other day
Protocol: Colitis was induced by adding 3% (w/v) DSS (TdB Consultancy AB, Uppsala, Sweden) to drinking water for 9 days. Mice were treated i.p. with short TSLP (200 μg in 200 μl of injectable water) the day before DSS administration and every other day during the entire study. Mice were monitored daily for weight loss.

[9] = i.p. 12 hours and 2 hours before LPS, 6 hours after LPS, dose-dependent

C=C1/C(=C\C=C2/CCC[C@]3(C)[C@@H]([C@H](C)CCCC(C)(C)O)CC[C@@H]23)C[C@@H](O)C[C@@H]1O [vitamin D, calcitriol]
short TSLP mRNA (HaCaT cells): significantly upregulated mRNA for short TSLP

C terminal peptide: C terminal fragment of short TSLP, aa 24-63 of SEQ ID NO: 1, mw 4.8 KDa (ATQAMKKRRKRKVTTNKCLEQVSQLQGLWRRFNRPLLKQQ; listed as Homo sapiens)
IFN-gamma release in MLR [1]: inhibiting IFNgamma secretion | level of inflammatory cytokines in the serum (C57Bl/6J mice): able to reduce the level of inflammatory cytokines in the serum

N terminal: N terminal fragment of short TSLP, aa 4-40 of SEQ ID NO: 1, mw 4.2 KDa (MKTKAALAIWCPGYSETQINATQAMKKRRKRKVTTNK; listed as Homo sapiens)
IFN-gamma release in MLR [1]: inhibiting IFNgamma secretion | level of inflammatory cytokines in the serum (C57Bl/6J mice): did not exert any effects

long TSLP: recombinant human TSLP long isoform, aa. 29-159 of SEQ ID NO: 2, from R&D Systems, or produced in house in baculovirus
IFN-gamma release in MLR [1]: increasing the amount of IFN-gamma released | STATS phosphorylation [2]: significantly increased | secretion of CCL17 [3]: significantly increased | secretion of CCL22 [3]: significantly increased | ongoing inflammation in the tissue [4]: only short TSLP ameliorated the ongoing inflammation

polyI:C
long TSLP mRNA (HaCaT cells): upregulated the long isoform

short TSLP: short TSLP peptide, aa 4-63 of SEQ ID NO: 1, mw 7 KDa, synthesized in house
inhibition of the release of IFN-gamma [1]: 50% | capacity to release IL12-p70 [5]: strongly affected | capacity to release IL-1beta [5]: strongly affected | capacity to release IL-6 [5]: strongly affected | capacity to release IL-10 [5]: strongly affected | capacity to release TNF-alfa [5]: strongly affected | expression of maturation markers CD80, CD86 or HLA-DR [6]: no change | percentage of Th1 cells ([7]; conditioned DCs 24 h, 6 days coculture, IFNgamma intracellular staining): reducing the percentage of Th1 cells | IFN-gamma secretion in DC-T coculture ([7]; conditioned DCs 24 h, supernatant day 6): reducing | counter effect to long TSLP on myeloid DCs ([7]; equimolar ratio with long TSLP): does not mediate a counter effect to the long isoform | IFN-γ in the sera (C57Bl/6J mice; [9]): significant decrease | IL-6 in the sera (C57Bl/6J mice; [9]): significant decrease | IL-12p40 in the sera (C57Bl/6J mice; [9]): significant decrease | anti-inflammatory effect (serum cytokines) in TSLPR knock-out mice (tslpr-/- mice): also manifested | body weight loss [8]: significantly limiting weight loss | ongoing inflammation in the tissue [4]: ameliorated the ongoing inflammation in the tissue | production of mucous by goblet cells [4]: restored the production of mucous by goblet cells | tissue architecture [4]: normalized tissue architecture
